These results are taken from article PMC4332989 (Cellular signalling, 2014).

Each structure is given as a SMILES string. Read-outs that look alike come from different tables or passages of the source.

The target of experiment [1] is CB1R coupling to Gαi3 (Mus musculus, UniProt P47746). Particulars: 100 nM.
Experiment [2] deals with T1, CB1R (Mus musculus, UniProt P47746). It is filed as cell-based. The conditions noted are these: for agonist-stimulated maximal ERK1/2 phosphorylation: 5 min (Fig. 4B); for stimulated ERK1/2 phosphorylation: 5 min (Fig. 5B); for agonist-stimulated enhancement in phosphoERK1/2 levels: over basal (Fig. 4).
Experiment [3] deals with T1, CB1R. As to the kind of experiment: cell-based. Particulars: for EC50: EC50, inhibition of forskolin-stimulated cAMP accumulation, 1 μM forskolin. For orientation: Cyclic AMP is a second messenger, typically raised through Gs and lowered through Gi signalling.
The target of experiment [4] is CB1R coupling to Gαi2 (Mus musculus, UniProt P47746). Particulars: 100 nM.
The target in experiment [5] is CB1R coupling to Gαo (Mus musculus, UniProt P47746). The conditions noted are these: 100 nM.
The target of experiment [6] is CB1R coupling to Gαi1 (Mus musculus, UniProt P47746). Particulars: 100 nM.
Experiment [7] concerns CB1R. As to the kind of experiment: On-cell-Western CB1R cell surface density in N18TG2 clones. The class given is cell-based, mouse.
Setting [8] is: WT, Control or CRIP1a KD membranes.

Sequence of CB1R coupling to Gαi3 (P47746 whole entry): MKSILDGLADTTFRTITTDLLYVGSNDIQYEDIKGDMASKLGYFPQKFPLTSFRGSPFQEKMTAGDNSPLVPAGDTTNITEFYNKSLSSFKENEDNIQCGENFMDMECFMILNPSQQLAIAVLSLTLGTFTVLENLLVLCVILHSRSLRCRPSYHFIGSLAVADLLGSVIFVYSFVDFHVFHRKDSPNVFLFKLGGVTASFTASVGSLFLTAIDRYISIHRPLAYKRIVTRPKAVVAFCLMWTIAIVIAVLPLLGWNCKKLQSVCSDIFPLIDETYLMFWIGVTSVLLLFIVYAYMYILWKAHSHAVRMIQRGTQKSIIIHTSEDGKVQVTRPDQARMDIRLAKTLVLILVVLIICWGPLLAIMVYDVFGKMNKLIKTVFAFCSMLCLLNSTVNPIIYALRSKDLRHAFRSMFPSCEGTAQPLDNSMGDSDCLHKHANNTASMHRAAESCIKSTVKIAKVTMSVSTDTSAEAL
Sequence of CB1R coupling to Gαo (P47746 whole entry): as above
T1 sequence (P47746 whole entry): as above
Sequence of CB1R coupling to Gαi2 (P47746 whole entry): as above
Sequence of CB1R coupling to Gαi1 (P47746 whole entry): as above

The EC50 is the midpoint of the concentration-response curve. Low readings indicate greater potency, high ones weaker potency. Turning to `CCCCCCC(C)(C)c1ccc([C@@H]2C[C@H](O)CC[C@H]2CCCO)c(O)c1` [CP55940, (−)-cis-3-[2-Hydroxy-4-(1,1-dimethyl-heptyl)phenyl]-trans-4-(3-hydroxypropyl)cyclohexanol], the “stimulated [35S]GTPγS binding to Gαi3” value in experiment [1] (CRIP1a KD membranes) is recorded as 103±22 % over basal; in experiment [1] (CRIP1a XS membranes), 10±12 % over basal; in experiment [1] (Control clone membranes), 62±21 % over basal; in experiment [1] (WT membranes), 79±18 % over basal. Also, the “agonist-stimulated maximal ERK1/2 phosphorylation” value in experiment [2] (CRIP1a KD2C cells, 10 nM) is 63±8%; in experiment [2] (CRIP1a KD2F cells, 10 nM), 59±4%. The “stimulated ERK1/2 phosphorylation” value was 68±4% in experiment [2] (KD2C cells, 10 nM); 58±5% in experiment [2] (KD2C cells, 100 nM); 73±5% in experiment [2] (KD2F cells, 10 nM); 62±6% in experiment [2] (KD2F cells, 100 nM). The “agonist-stimulated enhancement in phosphoERK1/2 levels” value (from here on “agonist-stimulated enhancement”) in experiment [2] (N18TG2 WT cells, 10 nM, 5 min) is on record as 45±6%. Further, the “time of rapid increase in phosphoERK1/2 levels” value in experiment [2] (WT, CRIP1a-XS and KD cells, 10 nM) is recorded as no more than 5 min. The EC50 turned out to be 0.2 nM in experiment [3] (CRIP1a KD cells, 4 min); 1.6 nM in experiment [3] (CRIP1a over-expression (XS) cells, 4 min); 3.4 nM in experiment [3] (N18TG2 WT cells, 4 min). Further, in experiment [4] (CRIP1a XS membranes), the “stimulation of [35S]GTPγS binding to Gαi2” value amounted to 753±316 % above basal. Moreover, the “binding of Gαi2 to CB1R following treatment” value in experiment [4] (setting [8]) was “no differences”. In addition, the figures for the “enhancement in [35S]GTPγS binding to Gαo” value in experiment [5] (CRIP1a KD membranes), in experiment [5] (CRIP1a XS membranes) and in experiment [5] (WT membranes) were 79±21 % over basal, 4±3 % over basal and 49±9 % over basal, respectively. The “stimulation of [35S]GTPγS binding to Gαi1” value in experiment [6] (CRIP1a XS membranes) is 128±54 % above basal. Also, the “binding of Gαi1 to CB1R following treatment” value in experiment [6] (setting [8]) is “no differences”.

`O=C(NN=Cc1ccc(O)c(O)c1)c1cc2ccccc2cc1O` [Dynasore, 3-Hydroxynaphthalene-2-carboxylic acid (3,4-dihydroxybenzylidene)hydrazide]: the “effect on CP55940-stimulated phosphorylation of ERK1/2” value in experiment [2] (WT, CRIP1a-XS and KD clones, Dynasore 80 μM, 30 min preincubation, CP55940 10 nM) was “completely blocked”.

`CCCCCCCCCCC[C@@H](C[C@@H]1OC(=O)[C@H]1CCCCCC)OC(=O)[C@H](CC(C)C)NC=O` [THL, tetrahydrolipstatin]: in experiment [7] (THL pretreatment 1 μM, 2 h (data not shown)), the “effect on total or cell surface levels of CB1R” value was “did not change”.

Take `Cc1c(C(=O)c2cccc3ccccc23)c2cccc3c2n1C(CN1CCOCC1)CO3` (stereo not drawn) [WIN55212-2, [2,3-dihydro-5-methyl-3-[(4-morpholinyl)methyl]pyrrolo[1,2,3-de]-1,4-benzoxazin-6-yl](1-naphthyl)methanone]: the “agonist-stimulated enhancement” value in experiment [2] (N18TG2 WT cells, 10 nM, 5 min) was 36±5%.

Take `C[C@@H]1C[C@@H]([C@H](O)CC2CC(=O)NC(=O)C2)C(=O)[C@@H](C)C1` [cycloheximide]: the “effect on CB1R plasma membrane density” value in experiment [7] (CRIP1a XS or KD cells, 50 μM, 2 h pre-treatment (data not shown)) is given as “failed to alter”.

Regarding `C=C[C@@]1(C)CC(=O)[C@]2(O)[C@@]3(C)[C@@H](O)CCC(C)(C)[C@@H]3[C@H](O)[C@H](OC(C)=O)[C@@]2(C)O1` [forskolin], the “stimulation of cAMP accumulation over vehicle” value in experiment [3] (1 μM, 4 min, WT, Control, CRIP1a XS, CRIP1a KD) was “to the same extent in all cell lines tested”.

`CCCCC/C=C\C/C=C\C/C=C\C/C=C\CCCC(=O)N[C@H](C)CO` [mAEA, (R)-N-(2-Hydroxy-1-methylethyl)-5Z,8Z,11Z,14Z-eicosatetraenamide]: in experiment [2] (N18TG2 WT cells, 10 nM, 5 min), the “ERK phosphorylation as share of the response observed with a CB1R full agonist” value is listed as ~ 30% and the “agonist-stimulated enhancement” value stood at 12±2%. Further, in experiment [3] (all clones, not altered by differences in the expression of CRIP1a (Fig. 7B)), the “effect on cAMP accumulation” value is listed as “concentration-dependent attenuation”.
